The record followed here is patent publication US20240228555A9, “ANTIMICROBIAL PEPTIDOMIMETICS” (Basilea Pharmaceutica International AG, Allschwil, priority 2020, published 2024).

Where two headings read alike, the source gives them in different places. Where a SMILES comes first, the peptide text is derived from it.

Data set [1] concerns Escherichia coli ATCC 25922. As to the method:
(§1) Lyophilized peptides were weighed on a Microbalance (Mettler MT5) and dissolved in sterile water to a final concentration of 1 mg/mL. Stock solutions were kept at +4° C., light protected.
(§2) Colonies of the microorganisms were diluted in saline (0.85%, NaCl) and adjusted using a McFarland reader (bioMérieux SA, Marcy-l'Etoile, France) to 0.5 McFarland standard. Subsequently, the bacterial suspension was diluted in Mueller-Hinton II (MHII, cation adjusted) broth to give approximately 5×10^5 colony forming units (CFU/mL).
(§3) 10^6 colony forming units (CFU)/mL. Aliquots (90 μl) of inoculate were added to 10 μl of water+P-80 (Polysorbate 80, 0.002% final concentration) containing the peptide in serial two-fold dilutions at 10 fold final concentration. The following microorganisms were used to determine antibiotic selectivity of the peptides: Escherichia coli ATCC 25922, Escherichia coli MCR-1 Af 45 and Klebsiella pneumoniae SSI3010.

The test system of data set [2] is Klebsiella pneumoniae SSI3010. On the procedure:
as §1, §2, §3

For data set [3], the system named is human red blood cells (hRBC). Type of data set: cell-based. Particulars: red cells of human, 1 h, 0.2 g/L. On the procedure:
as §1
The peptides were tested for their hemolytic activity against human red blood cells (hRBC). Fresh hRBC were washed three times with phosphate buffered saline (PBS) and centrifuged for 5 min at 3000×g. Compounds (200 μg/mL) were incubated with 20% hRBC (v/v) for 1 h at 37° C. and shaking at 300 rpm. A value of 0% and 100% cell lyses, respectively, was determined by incubation of hRBC in the presence of PBS and 2.5% Triton X-100 in H2O, respectively. The samples were centrifuged, the supernatants were 8-fold diluted in PBS buffer and the optical densities (OD) were measured at 540 nm. The 100% lyses value (OD540H2O) gave an OD540 of approximately 0.5-1.0.
Percent hemolysis was calculated as follows: (OD540peptide/OD540H2O)×100%.

The subject of data set [4] is Escherichia coli MCR-1 Af 45. Particulars: Mueller-Hinton broth II, no visible growth after 18-20 hours at 35° C. On the procedure:
as §1, §2, §3

[5] abbreviates: Mueller-Hinton broth II, no visible growth after 18-20 hours at 35° C.

In the case of `CCCC[C@H](NC(=O)[C@H](CCCNC(=N)N)NC(=O)[C@H](CCN)NC(=O)[C@@H]1CSSC(C)(C)[C@H](NC(=O)[C@H](Cc2ccc(O)cc2)NC(=O)[C@@H](NC(=O)[C@@H](NC(=O)[C@@H]2C[C@@H](N)CN2C(=O)[C@@H](N)C(C)C)[C@@H](C)CC)[C@@H](C)CC)C(=O)N[C@@H](CC(N)=O)C(=O)N[C@@H](CCCNC(=N)N)C(=O)N[C@@H](CCCNC(=N)N)C(=O)N[C@@H]([C@@H](C)O)C(=O)N[C@H](CCN)C(=O)N[C@@H](CCCCN)C(=O)N1)C(=O)O` [Example 2, Val-Pro((4R)NH2)-Ile-Ile-Tyr-Pen-Asn-Arg-Arg-Thr-^DDab-Lys-Cys-Dab-Arg-Nle] (HELM PEPTIDE1{V.[N[C@@H]1C[C@@H](C(=O)[*:2])N([*:1])C1].I.I.Y.[Pen].N.R.R.T.[NCC[C@@H](N[*:1])C(=O)[*:2]].K.C.[Dab].R.[Nle]}$PEPTIDE1,PEPTIDE1,6:R3-13:R3$$$V2.0), in data set [1] (setting [5]), the “Escherichia coli ATCC 25922 MIC” value was found to be 0.0625 mg/L. Besides, in data set [2] (setting [5]), the “Klebsiella pneumoniae SSI3010 MIC” value amounted to 0.125 mg/L. Moreover, the “Hemolysis at 0.2 g/L” value in data set [3] worked out at 0%.

`CC[C@H](C)[C@H](NC(=O)[C@@H](NC(=O)[C@@H]1CCCN1C(=O)[C@@H](N)C(C)C)[C@@H](C)CC)C(=O)N[C@@H](Cc1ccc(O)cc1)C(=O)N[C@@H]1C(=O)N[C@@H](CC(N)=O)C(=O)N[C@@H](CCCNC(=N)N)C(=O)N[C@@H](CCN)C(=O)N[C@@H]([C@@H](C)O)C(=O)N[C@H](CCN)C(=O)N[C@@H](CCCCN)C(=O)N[C@H](C(=O)N[C@@H](CCN)C(=O)N[C@@H](CCCNC(=N)N)C(=O)N[C@@H](Cc2ccc(O)cc2)C(=O)O)CSSC1(C)C` [Example 7, Val-Pro-Ile-Ile-Tyr-Pen-Asn-Arg-Dab-Thr-^DDab-Lys-Cys-Dab-Arg-Tyr] (HELM PEPTIDE1{V.P.I.I.Y.[Pen].N.R.[Dab].T.[NCC[C@@H](N[*:1])C(=O)[*:2]].K.C.[Dab].R.Y}$PEPTIDE1,PEPTIDE1,6:R3-13:R3$$$V2.0): the “Escherichia coli ATCC 25922 MIC” value in data set [1] (setting [5]) is 0.0625 mg/L. Moreover, in data set [2] (setting [5]), the “Klebsiella pneumoniae SSI3010 MIC” value worked out at 0.125 mg/L. Moreover, the “Hemolysis at 0.2 g/L” value in data set [3] is listed as 0%.

In the case of `CC[C@H](C)[C@H](NC(=O)[C@@H](NC(=O)[C@@H]1C[C@@H](O)CN1C(=O)[C@@H](N)C(C)C)[C@@H](C)CC)C(=O)N[C@@H](Cc1ccc(O)cc1)C(=O)N[C@@H]1C(=O)N[C@@H](CC(N)=O)C(=O)N[C@@H](CCCNC(=N)N)C(=O)N[C@@H](CCN)C(=O)N[C@@H]([C@@H](C)O)C(=O)N[C@H](CCN)C(=O)N[C@@H](CCCCN)C(=O)N[C@H](C(=O)N[C@@H](CCN)C(=O)N[C@@H](CCCNC(=N)N)C(=O)N[C@@H](Cc2ccc(O)cc2)C(=O)O)CSSC1(C)C` [Example 14, Val-Hyp-Ile-Ile-Tyr-Pen-Asn-Arg-Dab-Thr-^DDab-Lys-Cys-Dab-Arg-Tyr] (HELM PEPTIDE1{V.[Hyp].I.I.Y.[Pen].N.R.[Dab].T.[NCC[C@@H](N[*:1])C(=O)[*:2]].K.C.[Dab].R.Y}$PEPTIDE1,PEPTIDE1,6:R3-13:R3$$$V2.0), the “Escherichia coli ATCC 25922 MIC” value in data set [1] (setting [5]) is 0.125 mg/L. In addition, in data set [2] (SSI3010), the “Klebsiella pneumoniae SSI3010 MIC” value was 0.25 mg/L. Besides, the “Hemolysis at 0.2 g/L” value in data set [3] came out at 0%.

With `CC[C@H](C)[C@H](NC(=O)[C@@H](NC(=O)[C@@H]1CCCN1C(=O)[C@@H](NC(=N)N)C(C)C)[C@@H](C)CC)C(=O)N[C@@H](Cc1ccc(O)cc1)C(=O)N[C@@H]1C(=O)N[C@@H](CC(N)=O)C(=O)N[C@@H](CCCNC(=N)N)C(=O)N[C@@H](CCN)C(=O)N[C@@H]([C@@H](C)O)C(=O)N[C@H](CCN)C(=O)N[C@@H](CCCCN)C(=O)N[C@H](C(=O)N[C@@H](CCN)C(=O)N[C@@H](CCCNC(=N)N)C(=O)N[C@@H](Cc2ccc(O)cc2)C(=O)O)CSSC1(C)C` [Example 54, Gua-Val-Pro-Ile-Ile-Tyr-Pen-Asn-Arg-Dab-Thr-^DDab-Lys-Cys-Dab-Arg-Tyr] (HELM PEPTIDE1{[CC(C)[C@H](NC(=N)N)C(=O)[*:2]].P.I.I.Y.[Pen].N.R.[Dab].T.[NCC[C@@H](N[*:1])C(=O)[*:2]].K.C.[Dab].R.Y}$PEPTIDE1,PEPTIDE1,6:R3-13:R3$$$V2.0), the “Escherichia coli ATCC 25922 MIC” value in data set [1] (setting [5]) was 0.125 mg/L. In addition, the “Klebsiella pneumoniae SSI3010 MIC” value in data set [2] (setting [5]) was 0.125 mg/L. Besides, in data set [3], the “Hemolysis at 0.2 g/L” value turned out to be 0%.

As for `CC[C@H](C)[C@H](NC(=O)[C@@H](NC(=O)[C@@H]1C[C@@H](O)CN1C(=O)[C@@H](NC(=N)N)C(C)C)[C@@H](C)CC)C(=O)N[C@@H](Cc1ccc(O)cc1)C(=O)N[C@@H]1C(=O)N[C@@H](CC(N)=O)C(=O)N[C@@H](CCCNC(=N)N)C(=O)N[C@@H](CCN)C(=O)N[C@@H]([C@@H](C)O)C(=O)N[C@H](CCN)C(=O)N[C@@H](CCCCN)C(=O)N[C@H](C(=O)N[C@@H](CCN)C(=O)N[C@@H](CCCNC(=N)N)C(=O)N[C@@H](Cc2ccc(O)cc2)C(=O)O)CSSC1(C)C` [Example 56, Gua-Val-Hyp-Ile-Ile-Tyr-Pen-Asn-Arg-Dab-Thr-^DDab-Lys-Cys-Dab-Arg-Tyr] (HELM PEPTIDE1{[CC(C)[C@H](NC(=N)N)C(=O)[*:2]].[Hyp].I.I.Y.[Pen].N.R.[Dab].T.[NCC[C@@H](N[*:1])C(=O)[*:2]].K.C.[Dab].R.Y}$PEPTIDE1,PEPTIDE1,6:R3-13:R3$$$V2.0), the “Escherichia coli ATCC 25922 MIC” value in data set [1] (setting [5]) was determined as 0.03125 mg/L. Also, the “Klebsiella pneumoniae SSI3010 MIC” value in data set [2] (setting [5]) worked out at 0.0625 mg/L. Besides, the “Hemolysis at 0.2 g/L” value in data set [3] is reported as 0%.

Turning to `CC[C@H](C)[C@H](NC(=O)[C@@H](NC(=O)[C@@H]1C[C@@H](O)CN1C(=O)[C@@H](N)C(C)C)[C@@H](C)CC)C(=O)N[C@@H](Cc1ccc(O)cc1)C(=O)N[C@@H]1C(=O)N[C@@H](CC(N)=O)C(=O)N[C@@H](CCCNC(=N)N)C(=O)N[C@@H](CCN)C(=O)N[C@@H]([C@@H](C)O)C(=O)N[C@H](CCN)C(=O)N[C@@H](CCCCN)C(=O)N[C@H](C(=O)N[C@@H](CCN)C(=O)N[C@@H](CCCNC(N)=O)C(=O)N[C@@H](Cc2ccc(O)cc2)C(=O)O)CSSC1(C)C` [Example 73, Val-Hyp-Ile-Ile-Tyr-Pen-Asn-Arg-Dab-Thr-^DDab-Lys-Cys-Dab-Cit-Tyr] (HELM PEPTIDE1{V.[Hyp].I.I.Y.[Pen].N.R.[Dab].T.[NCC[C@@H](N[*:1])C(=O)[*:2]].K.C.[Dab].[Cit].Y}$PEPTIDE1,PEPTIDE1,6:R3-13:R3$$$V2.0), the “Escherichia coli ATCC 25922 MIC” value in data set [1] (ATCC 25922) turned out to be 0.5 mg/L. Moreover, the “Escherichia coli MCR-1 Af 45 MIC” value in data set [4] came out at 0.25 mg/L. For the same compound, the “Klebsiella pneumoniae SSI3010 MIC” value in data set [2] (SSI3010) turned out to be 0.5 mg/L. The “Hemolysis at 0.2 g/L” value in data set [3] is recorded as below 1%.

For `CC[C@H](C)[C@H](NC(=O)[C@@H](NC(=O)[C@@H]1C[C@@H](O)CN1C(=O)[C@@H](N)C(C)C)[C@@H](C)CC)C(=O)N[C@@H](Cc1ccc(O)cc1)C(=O)N[C@@H]1C(=O)N[C@@H](CC(N)=O)C(=O)N[C@@H](CCCNC(=N)N)C(=O)N[C@@H](CCN)C(=O)N[C@@H]([C@@H](C)O)C(=O)N[C@H](CCN)C(=O)N[C@@H](CCCCN)C(=O)N[C@H](C(=O)N[C@@H](CCN)C(=O)N[C@@H](CCN)C(=O)N[C@@H](Cc2ccc(O)cc2)C(=O)O)CSSC1(C)C` [Example 74, Val-Hyp-Ile-Ile-Tyr-Pen-Asn-Arg-Dab-Thr-^DDab-Lys-Cys-Dab-Dab-Tyr] (HELM PEPTIDE1{V.[Hyp].I.I.Y.[Pen].N.R.[Dab].T.[NCC[C@@H](N[*:1])C(=O)[*:2]].K.C.[Dab].[Dab].Y}$PEPTIDE1,PEPTIDE1,6:R3-13:R3$$$V2.0), the “Escherichia coli ATCC 25922 MIC” value in data set [1] (ATCC 25922) amounted to 0.125 mg/L. The “Escherichia coli MCR-1 Af 45 MIC” value in data set [4] is reported as 0.0625 mg/L. In addition, the “Klebsiella pneumoniae SSI3010 MIC” value in data set [2] (SSI3010) was 0.25 mg/L. In addition, the “Hemolysis at 0.2 g/L” value in data set [3] is below 1%.

Consider `CC[C@H](C)[C@H](NC(=O)[C@@H](NC(=O)[C@@H]1C[C@@H](O)CN1C(=O)[C@@H](N)C(C)C)[C@@H](C)CC)C(=O)N[C@@H](Cc1ccc(O)cc1)C(=O)N[C@@H]1C(=O)N[C@@H](CC(N)=O)C(=O)N[C@@H](CCCNC(=N)N)C(=O)N[C@@H](CCN)C(=O)N[C@@H](CO)C(=O)N[C@H](CCN)C(=O)N[C@@H](CCCCN)C(=O)N[C@H](C(=O)N[C@@H](CCN)C(=O)N[C@@H](CCCNC(=N)N)C(=O)N[C@@H](Cc2ccc(O)cc2)C(=O)O)CSSC1(C)C` [Example 75, Val-Hyp-Ile-Ile-Tyr-Pen-Asn-Arg-Dab-Ser-^DDab-Lys-Cys-Dab-Arg-Tyr] (HELM PEPTIDE1{V.[Hyp].I.I.Y.[Pen].N.R.[Dab].S.[NCC[C@@H](N[*:1])C(=O)[*:2]].K.C.[Dab].R.Y}$PEPTIDE1,PEPTIDE1,6:R3-13:R3$$$V2.0), for which, in data set [1] (ATCC 25922), the “Escherichia coli ATCC 25922 MIC” value stood at 0.0625 mg/L. For the same compound, the “Escherichia coli MCR-1 Af 45 MIC” value in data set [4] came to 0.0625 mg/L. The “Klebsiella pneumoniae SSI3010 MIC” value in data set [2] (SSI3010) was determined as 0.125 mg/L. In data set [3], the “Hemolysis at 0.2 g/L” value was below 1%.
